Test results taken from patent US12084435B2, “Pyridine ring-substituted pyridazinol compounds and derivatives, preparation methods, herbicidal compositions and applications thereof” (Qingdao Kingagroot Chemical Compound Co., Ltd., priority 2018, dated 2024).

test system: monocotyledonous and dicotyledonous weed; experiment: Post-emergence test, weed control effect (Tables 6 and 7); assay type: in vivo; set-up: key: 10: completely dead; above 90% growth inhibition rate; above 80% growth inhibition rate; above 70% growth inhibition rate; above 60% growth inhibition rate; above 50% growth inhibition rate; above 40% growth inhibition rate; above 30% growth inhibition rate; above 20% growth inhibition rate; 1: below 20% growth inhibition rate; 0: no effect; conditions: Dose 300 g/ha
Protocol: The above described growth inhibition rates are fresh weight inhibition rates. Experiment of post-emergence test: monocotyledonous and dicotyledonous weed seeds as well as main crop seeds (i.e., wheat, corn, rice, soybean, cotton, oilseed rape, millet and sorghum) were put into aplastic pot loaded with soil, then covered with 0.5-2 cm of soil, and the seeds were allowed to grow in good greenhouse environment. The test plants were treated at 4-5 leaf stage 2-3 week […] sowing. The test compounds of the invention were dissolved in acetone respectively, then added with Tween-80 and diluted by a certain amount of water to give solutions with certain concentrations. The solution was sprayed to the plants with as prayer. The plants were cultured for 3 weeks in the greenhouse.

| Compound | comparison experiment (activity level), Digitaria sanguinalis | comparison experiment (activity level), Echinochloa crus-galli | comparison experiment (activity level), Galium aparine | comparison experiment (activity level), Rorippa indica | comparison experiment (activity level), Setaria viridis | comparison experiment (activity level), Veronica polita |
| --- | --- | --- | --- | --- | --- | --- |
| Oc1cc(Cl)nnc1-c1ccnc(F)c1 [Compound 2-3] | 10 | 10 | 10 | 10 | 10 | 10 |
| CCCCCCCCSC(=O)Oc1cc(Cl)nnc1-c1ccccc1 [Control Compound B, reference compound] | 0 | 0 | 4 (above 40% growth inhibition rate) | 3 (above 30% growth inhibition rate) | 2 (above 20% growth inhibition rate) | 6 (above 60% growth inhibition rate) |
| Oc1cc(Cl)nnc1-c1cccnc1 [Compound 1-1] | 7 (above 70% growth inhibition rate) | 8 (above 80% growth inhibition rate) | 9 (above 90% growth inhibition rate) | 10 | 10 | 9 (above 90% growth inhibition rate) |
| Oc1cc(Cl)nnc1-c1cncc(F)c1 [Compound 1-4] | 8 (above 80% growth inhibition rate) | 8 (above 80% growth inhibition rate) | 10 | 10 | 10 | 10 |
| Oc1cc(Cl)nnc1-c1cccnc1F [Compound 1-2] | 8 (above 80% growth inhibition rate) | 10 | 9 (above 90% growth inhibition rate) | 10 | 10 | 10 |

same assay, conditions: Dose 1000 g/ha, after 3 weeks

| Compound | weed control effect (activity level), Amaranthus retroflexus | weed control effect (activity level), Chenopodiaceae | weed control effect (activity level), Rorippa indica | weed control effect (activity level), Veronica polita |
| --- | --- | --- | --- | --- |
| Oc1cc(Cl)nnc1-c1ccnc(F)c1 [Compound 2-3] | 10 | 10 | 10 | 10 |
| Oc1cc(Cl)nnc1-c1cc(F)ncc1F [Compound 2-11] | 10 | 10 | 10 | 10 |
| Oc1cc(Cl)nnc1-c1cc(F)nc(Cl)c1 [Compound 2-23] | 10 | 10 | 10 | 10 |
| Oc1cc(Cl)nnc1-c1ccnc(F)c1F [Compound 2-10] | 10 | 10 | 10 | 10 |
| Oc1cc(Cl)nnc1-c1ccnc(Cl)c1 [Compound 2-5] | 10 | 10 | 10 | 10 |
| Oc1cc(Cl)nnc1-c1cc(F)nc(F)c1 [Compound 2-13] | 10 | 10 | 10 | 10 |

same assay, conditions: Dose 2000 g/ha, after 3 weeks

| Compound | weed control effect (activity level), Amaranthus retroflexus | weed control effect (activity level), Chenopodiaceae | weed control effect (activity level), Rorippa indica | weed control effect (activity level), Veronica polita |
| --- | --- | --- | --- | --- |
| Oc1cc(Cl)nnc1-c1cncc(Cl)c1 [Compound 1-8] | 10 | 10 | 10 | 10 |
| Cc1nc(F)ccc1-c1nnc(Cl)cc1O [Compound 1-90] | 10 | 10 | 10 | 7 (above 70% growth inhibition rate) |
| Oc1cc(Cl)nnc1-c1cc(F)c(F)nc1F [Compound 1-105] | 10 | 10 | 10 | 10 |
| Oc1cc(Cl)nnc1-c1ccc(Cl)c(F)n1 [Compound 3-30] | 10 | 10 | 10 | 10 |
| Oc1cc(Cl)nnc1-c1cccnc1Cl [Compound 1-6] | 10 | 10 | 10 | 7 (above 70% growth inhibition rate) |
| Oc1cc(Cl)nnc1-c1ccc(Br)nc1 [Compound 1-11] | 10 | 10 | 10 | 10 |
| Oc1cc(Cl)nnc1-c1cc(F)cnc1F [Compound 1-58] | 10 | 10 | 10 | 10 |
| Oc1cc(Cl)nnc1-c1ccc(Cl)nc1Cl [Compound 1-63] | 10 | 10 | 10 | 10 |
| Oc1cc(Cl)nnc1-c1cnccc1F [Compound 1-5] | 10 | 10 | 10 | 10 |
| Oc1cc(Cl)nnc1-c1cccnc1 [Compound 1-1] | 10 | 10 | 10 | 10 |
| Oc1cc(Cl)nnc1-c1cncc(F)c1 [Compound 1-4] | 10 | 10 | 10 | 10 |
| Oc1cc(Cl)nnc1-c1cc(F)cc(F)n1 [Compound 3-19] | 10 | 10 | 10 | 10 |
| Oc1cc(Cl)nnc1-c1ccc(C(F)(F)F)nc1 [Compound 1-23] | 10 | 10 | 10 | 10 |
| Oc1cc(Cl)nnc1-c1cc(Cl)ccn1 [Compound 3-8] | 10 | 10 | 10 | 10 |
| Oc1cc(Cl)nnc1-c1ccc(F)c(F)n1 [Compound 3-18] | 10 | 10 | 10 | 10 |
| Oc1cc(Cl)nnc1-c1ccc(F)nc1 [Compound 1-3] | 10 | 10 | 10 | 10 |
| Oc1cc(Cl)nnc1-c1ccc(F)nc1F [Compound 1-57] | 10 | 10 | 10 | 10 |
| Oc1cc(Cl)nnc1-c1cccnc1F [Compound 1-2] | 10 | 10 | 10 | 10 |
| Oc1cc(Cl)nnc1-c1cnc(F)c(F)c1 [Compound 1-60] | 10 | 10 | 10 | 7 (above 70% growth inhibition rate) |
| Oc1cc(Cl)nnc1-c1ccc(Cl)cn1 [Compound 3-7] | 10 | 10 | 10 | 10 |
| Oc1cc(Cl)nnc1-c1ccc(F)cn1 [Compound 3-3] | 10 | 10 | 10 | 10 |

same assay, conditions: Dose 3000 g/ha, after 3 weeks

| Compound | weed control effect (activity level), Amaranthus retroflexus | weed control effect (activity level), Chenopodiaceae | weed control effect (activity level), Rorippa indica | weed control effect (activity level), Veronica polita |
| --- | --- | --- | --- | --- |
| Oc1cc(C(F)(F)C(F)(F)F)nnc1-c1ccc(F)nc1F [Compound 1-131] | 10 | 10 | 10 | 10 |

test system: Echinochloa crusgalli, Scirpus juncoides, Sagittaria trifolia L. and Bidens tripartite; experiment: Resistance tests of the collected rice-field weeds; assay type: in vivo; conditions: common rate; weed seeds collected from Heilongjiang Province of China
Source text: Note: The seeds of Echinochloa crusgalli, Scirpus juncoides, Sagittaria trifolia L. and Bidens tripartite were collected from Heilongjiang Province of China.

| Compound | resistance of the weeds to the herbicide |
| --- | --- |
| CCOC(=O)c1cnn(C)c1S(=O)(=O)NC(=O)Nc1nc(OC)cc(OC)n1 [pyrazosulfuron-ethyl] | resistant |
